Measurements taken from ChEMBL document CHEMBL1145380, “Optimization of 1,3,4-benzotriazepine-based CCK(2) antagonists to obtain potent, orally active inhibitors of gastrin-mediated gastric acid secretion” (J Med Chem, 2007).

How the values were obtained:
[1] = biological target: T1, Gastrin/cholecystokinin type B receptor (Canis lupus familiaris) (UniProt P30552); test: Inhibition of pentagastrin-stimulated gastric acid secretion in iv dosed conscious gastric fistula dog; assay type: functional, organism-based; conditions: Stomach
T1 sequence (whole entry): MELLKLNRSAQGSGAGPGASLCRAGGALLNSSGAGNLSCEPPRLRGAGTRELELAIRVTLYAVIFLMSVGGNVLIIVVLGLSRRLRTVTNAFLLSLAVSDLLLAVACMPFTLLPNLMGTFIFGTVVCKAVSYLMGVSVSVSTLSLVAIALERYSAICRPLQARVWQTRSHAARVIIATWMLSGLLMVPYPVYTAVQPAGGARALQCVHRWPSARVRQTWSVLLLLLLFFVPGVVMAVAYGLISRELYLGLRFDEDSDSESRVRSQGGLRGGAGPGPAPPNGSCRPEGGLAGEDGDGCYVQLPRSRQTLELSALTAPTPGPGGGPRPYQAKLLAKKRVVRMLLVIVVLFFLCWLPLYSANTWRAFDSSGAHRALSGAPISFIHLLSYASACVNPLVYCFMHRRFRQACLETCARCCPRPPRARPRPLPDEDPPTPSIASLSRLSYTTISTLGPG

[2] = biological target: T1, Gastrin/cholecystokinin type B receptor (Canis lupus familiaris); test: Inhibition of pentagastrin-stimulated gastric acid secretion in intragastrically dosed conscious gastric fistula dog; assay type: functional, organism-based; conditions: Stomach
[3] = biological target: T1, Gastrin/cholecystokinin type B receptor (Canis lupus familiaris); test: Inhibition of pentagastrin-stimulated gastric acid secretion in intraduodenal bolus dosed conscious dual gastric fistula dog; assay type: functional, organism-based; conditions: Stomach
[4] = biological target: T2, Gastrin/cholecystokinin type B receptor (Homo sapiens, UniProt P32239); test: Displacement of [125I]BH-CCK-8S from human recombinant CCK2 receptor expressed in NIH3T3 cells
T2 sequence (P32239 whole entry): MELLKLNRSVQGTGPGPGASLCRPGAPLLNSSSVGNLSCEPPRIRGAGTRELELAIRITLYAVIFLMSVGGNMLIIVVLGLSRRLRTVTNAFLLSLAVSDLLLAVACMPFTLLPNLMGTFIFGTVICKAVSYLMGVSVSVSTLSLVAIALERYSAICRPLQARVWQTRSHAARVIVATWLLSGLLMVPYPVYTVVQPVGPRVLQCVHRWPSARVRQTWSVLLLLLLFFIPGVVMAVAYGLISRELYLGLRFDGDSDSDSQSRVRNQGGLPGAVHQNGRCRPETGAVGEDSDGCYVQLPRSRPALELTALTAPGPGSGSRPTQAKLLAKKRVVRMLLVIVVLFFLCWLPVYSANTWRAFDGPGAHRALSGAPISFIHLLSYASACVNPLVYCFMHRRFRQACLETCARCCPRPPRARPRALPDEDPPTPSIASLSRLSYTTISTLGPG

[5] = biological target: T3, Cholecystokinin receptor type A (Homo sapiens, UniProt P32238); test: Displacement of [3H]L-364718 from human recombinant CCK1 receptor expressed in PC3 cells; assay type: cell-based, PC-3
T3 sequence (P32238 whole entry): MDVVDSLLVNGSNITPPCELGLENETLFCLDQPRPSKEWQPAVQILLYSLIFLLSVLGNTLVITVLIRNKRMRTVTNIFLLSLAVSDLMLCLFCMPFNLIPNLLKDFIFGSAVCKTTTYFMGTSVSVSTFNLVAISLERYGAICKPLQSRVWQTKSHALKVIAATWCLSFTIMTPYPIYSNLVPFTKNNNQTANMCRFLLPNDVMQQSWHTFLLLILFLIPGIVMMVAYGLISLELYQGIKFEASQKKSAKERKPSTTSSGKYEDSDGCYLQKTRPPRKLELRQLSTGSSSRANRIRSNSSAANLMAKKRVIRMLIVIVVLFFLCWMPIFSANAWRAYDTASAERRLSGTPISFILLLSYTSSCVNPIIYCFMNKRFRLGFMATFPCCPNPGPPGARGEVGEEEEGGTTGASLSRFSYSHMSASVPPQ

[6] = biological target: T4, Gastrin/cholecystokinin type B receptor (Rattus norvegicus, UniProt P30553); test: Antagonist activity at CCK2 receptor in perfused rat stomach assessed as inhibition of pentagastrin-stimulated gastric acid secretion; assay type: functional, tissue-based; conditions: read-out: pA2 (converted)
T4 sequence (P30553 whole entry): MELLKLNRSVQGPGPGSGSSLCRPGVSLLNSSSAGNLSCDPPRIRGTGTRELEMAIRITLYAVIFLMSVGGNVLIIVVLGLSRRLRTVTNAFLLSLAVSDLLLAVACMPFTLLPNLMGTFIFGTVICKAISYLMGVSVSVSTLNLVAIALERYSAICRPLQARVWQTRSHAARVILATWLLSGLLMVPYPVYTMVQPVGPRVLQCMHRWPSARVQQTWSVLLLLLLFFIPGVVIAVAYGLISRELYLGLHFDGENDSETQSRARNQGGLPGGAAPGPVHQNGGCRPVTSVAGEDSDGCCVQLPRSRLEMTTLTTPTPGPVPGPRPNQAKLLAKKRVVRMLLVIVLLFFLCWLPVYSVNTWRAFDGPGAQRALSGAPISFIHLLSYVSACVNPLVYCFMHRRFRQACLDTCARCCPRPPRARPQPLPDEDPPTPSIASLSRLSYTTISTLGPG

[7] = biological target: T5, Gastrin/cholecystokinin type B receptor (Canis lupus familiaris, UniProt P30552); test: Displacement of [125I]BH-[…] from CCK2 receptor in canine gastric mucosa; assay type: tissue-based
T5 sequence (P30552 whole entry): T1 sequence (whole entry)

[8] = biological target: T3, Cholecystokinin receptor type A; test: Displacement of [3H]L-364718 from human recombinant CCK1 receptor expressed in CHOK1 cells; assay type: cell-based, CHO-K1
[9] = Volume of distribution at steady state in dog at 2.5 mg/kg, iv; assay type: ADME, organism-based, Canis lupus familiaris; set-up: dose 2.5 mg/kg, route intravenous; conditions: in vivo, read-out: Vdss
[10] = Plasma clearance in dog at 2.5 mg/kg, iv; assay type: ADME, organism-based, Canis lupus familiaris; set-up: dose 2.5 mg/kg, route intravenous
[11] = Cmax in po dosed dog; assay type: ADME, organism-based, Canis lupus familiaris; set-up: route oral; conditions: in vivo
[12] = Half life beta in po dosed dog; assay type: ADME, organism-based, Canis lupus familiaris; conditions: in vivo, read-out: beta t1/2 (converted)
[13] = Bioavailability in po dosed dog; assay type: ADME, organism-based, Canis lupus familiaris; conditions: in vivo
[14] = biological target: T2, Gastrin/cholecystokinin type B receptor; test: Displacement of […] from human recombinant CCK2 receptor expressed in NIH3T3 cells; assay type: cell-based

Row | Ki [4] | Ki [5] | Kb [6] | Ki [7] | Ki [8] | Ki [14] | Structure (SMILES) | further results
1 | – | – | – | – | – | – | O=C(CN1N=C(C2CCCCC2)c2ccccc2N(CC(=O)C2CCCC2)C1=O)Nc1cccc(-c2noc(=O)[nH]2)c1 | ID50 [1]: < 0.03 mg/kg; ID50 [2]: 0.016 mg/kg; Activity [3]: Dose-dependent effect
2 | 2.14 nM | > 10000 nM | 9.77 nM | 5.25 nM | – | – | CC(C)(C)C(=O)CN1C(=O)N(CC(=O)Nc2cccc(CC(=O)O)c2)N=C(C2CCCCC2)c2ccccc21 | Activity [1]: Dose-dependent effect
3 | 0.2 nM | – | – | 4.47 nM | 589 nM | – | CC(C)(C)C(=O)CN1C(=O)N(CC(=O)Nc2cccc(-c3nc(=O)o[nH]3)c2)N=C(C2CCCCC2)c2ccccc21 | Activity [2]: Dose-dependent effect
4 | 0.107 nM | – | 1.82 nM | 4.47 nM | 468 nM | – | O=C(CN1N=C(C2CCCCC2)c2ccccc2N(CC(=O)C2CCCC2)C1=O)Nc1cccc(-c2nc(=O)o[nH]2)c1 | Vd [9]: 0.13 L/kg; clearance [10]: 3.33 mL/min/kg; Cmax [11]: 15 µM; half-life [12]: 4.1 h; bioavailability [13]: 41%
5 | – | – | – | – | 3980 nM | 1.2 nM | CC1(C(=O)CN2C(=O)N(CC(=O)Nc3cccc(C(=O)O)c3)N=C(C3CCCCC3)c3ccccc32)CCCC1 | –
6 | – | 7080 nM | – | – | – | 89.1 nM | CC(C)CC1=NN(CC(=O)Nc2cccc(C(=O)O)c2)C(=O)N(CC(=O)C(C)(C)C)c2ccccc21 | –
